Activity data for one molecule are collected here from ChEMBL document CHEMBL4334471, “Discovery of 1,8-disubstituted-[1,2,3]triazolo[4,5-c]quinoline derivatives as a new class of Hippo signaling pathway inhibitors” (Bioorg Med Chem Lett, 2019).

The target of assay [1] is Serine/threonine-protein kinase WNK4 (Homo sapiens) (UniProt Q96J92). Put plainly: Inhibition of recombinant human WNK4 (A31 to D461 residues) assessed as residual activity at 10 uM using myelin basic protein as substrate incubated for 40 mins in presence of [gamma33P]ATP by scintillation counting based radiometry assay relative to control.
Assay [2] has as its target SRSF protein kinase 3 (Homo sapiens) (UniProt Q9UPE1). The experiment in a line: Inhibition of recombinant full-length human MSSK1 assessed as residual activity at 10 uM using ERMRPRKRQGSVRRRV as substrate measured after 40 mins in presence of [gamma33P]ATP by scintillation counting based radiometry assay relative to control.
Assay [3] concerns the target Cyclin-dependent kinase 5/CDK5 activator 1 (Homo sapiens) (UniProt Q00535+Q15078). The experiment in a line: Inhibition of recombinant full length human CDK5/p25 assessed as residual activity at 10 uM using histone H1 as substrate incubated for 40 mins in presence of [gamma-33ATP] by scintillation counting based radiometry assay relative to control. The format is protein-complex assay.

Assay [4] deals with Protein kinase C delta type (Homo sapiens) (UniProt Q05655). Put plainly: Inhibition of recombinant human PKCdelta (2 to end residues) assessed as residual activity at 10 uM using ERMRPRKRQGSVRR as substrate incubated for 40 mins in presence of [gamma33P]ATP by scintillation counting based radiometry assay relative to control.
Protein kinase C delta type (Homo sapiens), sequence (Q05655 whole entry, looked up): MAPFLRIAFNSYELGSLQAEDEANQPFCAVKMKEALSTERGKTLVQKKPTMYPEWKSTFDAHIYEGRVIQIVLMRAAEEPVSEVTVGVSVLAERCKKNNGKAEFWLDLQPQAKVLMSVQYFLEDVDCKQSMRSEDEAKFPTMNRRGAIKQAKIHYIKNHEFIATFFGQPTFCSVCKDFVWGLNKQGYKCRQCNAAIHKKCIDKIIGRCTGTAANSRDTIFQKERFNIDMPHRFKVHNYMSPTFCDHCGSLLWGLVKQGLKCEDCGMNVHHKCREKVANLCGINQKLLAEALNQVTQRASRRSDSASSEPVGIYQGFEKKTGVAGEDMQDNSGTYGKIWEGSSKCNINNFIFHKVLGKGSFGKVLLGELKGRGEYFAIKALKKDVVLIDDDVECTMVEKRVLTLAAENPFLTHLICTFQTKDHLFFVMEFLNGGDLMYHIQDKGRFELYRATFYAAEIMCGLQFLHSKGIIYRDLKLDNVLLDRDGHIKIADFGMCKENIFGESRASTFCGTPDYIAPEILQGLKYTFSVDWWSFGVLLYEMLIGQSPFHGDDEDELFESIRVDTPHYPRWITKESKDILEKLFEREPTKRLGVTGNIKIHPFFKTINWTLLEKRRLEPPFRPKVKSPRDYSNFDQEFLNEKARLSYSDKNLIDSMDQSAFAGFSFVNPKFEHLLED
Assay [5] deals with Serine/threonine-protein kinase 17A (Homo sapiens) (UniProt Q9UEE5). Put plainly: Inhibition of recombinant human DRAK1 assessed as residual activity at 10 uM using KKLNRTLSFAEPG as substrate at 40 mins in presence of [gamma-33ATP] by scintillation counting based radiometry assay relative to control.
The target of assay [6] is Serine/threonine-protein kinase NLK (Homo sapiens) (UniProt Q9UBE8). The experiment in a line: Inhibition of recombinant human NLK (121 to end residues) assessed as residual activity at 10 uM using protein as substrate measured after 40 mins in presence of [gamma33P]ATP by scintillation counting based radiometry assay relative to control.
Serine/threonine-protein kinase NLK (Homo sapiens), sequence (Q9UBE8 whole entry): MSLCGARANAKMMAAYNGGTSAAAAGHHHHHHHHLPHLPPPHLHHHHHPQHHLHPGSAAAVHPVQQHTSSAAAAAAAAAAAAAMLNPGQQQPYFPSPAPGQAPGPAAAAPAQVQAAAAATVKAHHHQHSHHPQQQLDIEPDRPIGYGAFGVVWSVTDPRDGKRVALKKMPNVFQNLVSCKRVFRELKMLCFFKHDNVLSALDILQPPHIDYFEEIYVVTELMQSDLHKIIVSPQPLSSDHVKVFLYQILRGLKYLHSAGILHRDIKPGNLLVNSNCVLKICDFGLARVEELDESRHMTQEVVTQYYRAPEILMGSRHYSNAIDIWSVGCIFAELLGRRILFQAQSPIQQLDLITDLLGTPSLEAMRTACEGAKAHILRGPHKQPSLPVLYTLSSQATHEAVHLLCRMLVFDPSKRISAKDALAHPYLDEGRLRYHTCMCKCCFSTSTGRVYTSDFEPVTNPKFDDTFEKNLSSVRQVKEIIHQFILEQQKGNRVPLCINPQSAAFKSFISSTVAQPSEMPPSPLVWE
Assay [7] has as its target CDC7/Cyclin B1 (Homo sapiens) (UniProt P14635+O00311). Put plainly: Inhibition of recombinant full length human CD7/CyclinB1 assessed as residual activity at 10 uM using Histone H1 as substrate incubated for 40 mins in presence of [gamma-33ATP] by scintillation counting based radiometry assay relative to control. The assay is classed as protein-complex assay.
In assay [8] the target is Platelet-derived growth factor receptor alpha (Homo sapiens) (UniProt P16234). The experiment in a line: Inhibition of human PDGFRalpha (550 to end residues) assessed as residual activity at 10 uM using poly(Glu, Tyr) 4:1 as substrate measured after 40 mins in presence of [gamma33P]ATP by scintillation counting based radiometry assay relative to control.
Assay [9] deals with Dual specificity tyrosine-phosphorylation-regulated kinase 1B (Homo sapiens) (UniProt Q9Y463). The experiment in a line: Inhibition of recombinant human DYRK1B assessed as residual activity at 10 uM using RRRFRPASPLRGPP as substrate at 40 mins in presence of [gamma-33ATP] by scintillation counting based radiometry assay relative to control.
Assay [10] addresses TGF-beta receptor type-2 (Homo sapiens) (UniProt P37173). Put plainly: Inhibition of recombinant human TGFBR2 (188 to end residues) assessed as residual activity at 10 uM using myelin basic protein as substrate incubated for 120 mins in presence of [gamma33P]ATP by scintillation counting based radiometry assay relative to control.
In assay [11] the target is Mitogen-activated protein kinase 14 (Homo sapiens) (UniProt Q16539). Put plainly: Inhibition of recombinant human full length SAPK2a assessed as residual activity at 10 uM using myelin basic protein as substrate incubated for 40 mins in presence of [gamma33P]ATP by scintillation counting based radiometry assay relative to control.
Mitogen-activated protein kinase 14 (Homo sapiens), sequence (Q16539 whole entry): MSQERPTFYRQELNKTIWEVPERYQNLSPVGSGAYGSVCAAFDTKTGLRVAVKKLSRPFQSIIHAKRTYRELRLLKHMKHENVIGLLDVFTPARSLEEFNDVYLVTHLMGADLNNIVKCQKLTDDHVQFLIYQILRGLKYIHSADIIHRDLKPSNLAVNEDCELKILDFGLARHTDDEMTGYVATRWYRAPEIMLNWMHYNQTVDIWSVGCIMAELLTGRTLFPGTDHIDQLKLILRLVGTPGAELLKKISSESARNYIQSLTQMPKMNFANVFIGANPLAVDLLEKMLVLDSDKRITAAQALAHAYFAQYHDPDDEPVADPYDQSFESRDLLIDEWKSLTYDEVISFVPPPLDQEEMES
For assay [12], the target named is Serine/threonine-protein kinase 3 (Homo sapiens) (UniProt Q13188). Put plainly: Inhibition of recombinant human MST2 (2 to end residues) assessed as residual activity at 10 uM using myelin basic protein as substrate measured after 40 mins in presence of [gamma33P]ATP by scintillation counting based radiometry assay relative to control.
In assay [13] the target is Fibroblast growth factor receptor 2 (Homo sapiens) (UniProt P21802). The experiment in a line: Inhibition of recombinant human FGFR2 (456 to 770 residues) assessed as residual activity at 10 uM using poly(Glu, Tyr) 4:1 as substrate at 40 mins in presence of [gamma-33ATP] by scintillation counting based radiometry assay relative to control.
The target in assay [14] is Ribosomal protein S6 kinase alpha-6 (Homo sapiens) (UniProt Q9UK32). The experiment in a line: Inhibition of recombinant full length human Rsk4 assessed as residual activity at 10 uM using LRRASLG as substrate incubated for 40 mins in presence of [gamma33P]ATP by scintillation counting based radiometry assay relative to control.
Assay [15] concerns the target Tyrosine-protein kinase FRK (Homo sapiens) (UniProt P42685). Put plainly: Inhibition of recombinant human PTK5 (218 to end residues) assessed as residual activity at 10 uM using GGEEEEYFELVKKKK as substrate incubated for 40 mins in presence of [gamma33P]ATP by scintillation counting based radiometry assay relative to control.
The subject of assay [16] is Serine/threonine-protein kinase Nek4 (Homo sapiens), P51957 [P225A]. The experiment in a line: Inhibition of recombinant full-length human NEK4 P225A mutant assessed as residual activity at 10 uM using myelin basic protein as substrate measured after 40 mins in presence of [gamma33P]ATP by scintillation counting based radiometry assay relative to control.
Assay [17] addresses Insulin receptor (Homo sapiens) (UniProt P06213). The experiment in a line: Inhibition of human IR activated (1005 to 1310 residues) assessed as residual activity at 10 uM using KKSRGDYMTMQIG as substrate after 40 mins by [gamma-33ATP] radiometric assay relative to control.
Assay [18] relates to Casein kinase I isoform gamma-3 (Homo sapiens), Q9Y6M4 [UNDEFINED MUTATION]. The experiment in a line: Inhibition of recombinant human CK1gamma3 K91E/R174G/E302D mutant (1 to 330 residues) assessed as residual activity at 10 uM using KRRRALS(p)VASLPGL as substrate incubated for 40 mins in presence of [gamma-33ATP] by scintillation counting based radiometry assay relative to control.

Assay [19] has as its target Tyrosine-protein kinase Blk (Mus musculus) (UniProt P16277). The experiment in a line: Inhibition of recombinant full length mouse BLK assessed as residual activity at 10 uM using poly(Glu, Tyr) 4:1 as substrate incubated for 40 mins in presence of [gamma-33ATP] by scintillation counting based radiometry assay relative to control.
For assay [20], the target named is Death-associated protein kinase 3 (Homo sapiens) (UniProt O43293). The experiment in a line: Inhibition of recombinant human ZIPK (1 to 290 residues) assessed as residual activity at 10 uM using KKLNRTLSFAEPG substrate incubated for 40 mins in presence of [gamma33P]ATP by scintillation counting based radiometry assay relative to control.
Death-associated protein kinase 3 (Homo sapiens), sequence (O43293 whole entry, looked up, the tested form may be a part): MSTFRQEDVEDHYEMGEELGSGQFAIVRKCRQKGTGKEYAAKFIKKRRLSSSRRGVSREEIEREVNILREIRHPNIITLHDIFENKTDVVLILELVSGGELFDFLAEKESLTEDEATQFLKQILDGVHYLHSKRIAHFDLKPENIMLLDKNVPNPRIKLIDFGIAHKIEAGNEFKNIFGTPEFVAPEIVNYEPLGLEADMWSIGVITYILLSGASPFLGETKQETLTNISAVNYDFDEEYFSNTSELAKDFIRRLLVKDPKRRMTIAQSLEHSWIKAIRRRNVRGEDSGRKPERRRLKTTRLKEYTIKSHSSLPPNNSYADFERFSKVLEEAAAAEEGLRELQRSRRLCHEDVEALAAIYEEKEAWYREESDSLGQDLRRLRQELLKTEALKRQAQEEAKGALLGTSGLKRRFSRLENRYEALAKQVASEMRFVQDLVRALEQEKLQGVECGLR
In assay [21] the target is Tyrosine-protein kinase ITK/TSK (Homo sapiens) (UniProt Q08881). The experiment in a line: Inhibition of human Itk (352 to 617 residues) assessed as residual activity at 10 uM using myelin basic protein as substrate after 40 mins by [gamma-33ATP] radiometric assay relative to control.

Cyclin-dependent kinase 5/CDK5 activator 1 (Homo sapiens), sequence (Q00535 whole entry): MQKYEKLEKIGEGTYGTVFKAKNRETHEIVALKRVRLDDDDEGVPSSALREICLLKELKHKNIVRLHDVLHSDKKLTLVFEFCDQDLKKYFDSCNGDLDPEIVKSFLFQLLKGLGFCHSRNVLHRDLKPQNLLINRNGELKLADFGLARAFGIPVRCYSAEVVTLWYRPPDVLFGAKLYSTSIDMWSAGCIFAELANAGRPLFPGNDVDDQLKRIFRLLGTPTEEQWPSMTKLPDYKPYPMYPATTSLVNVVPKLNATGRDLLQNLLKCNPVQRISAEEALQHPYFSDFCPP
Cyclin-dependent kinase 5/CDK5 activator 1 (Homo sapiens), sequence (Q15078 99-307 partner limits assumed): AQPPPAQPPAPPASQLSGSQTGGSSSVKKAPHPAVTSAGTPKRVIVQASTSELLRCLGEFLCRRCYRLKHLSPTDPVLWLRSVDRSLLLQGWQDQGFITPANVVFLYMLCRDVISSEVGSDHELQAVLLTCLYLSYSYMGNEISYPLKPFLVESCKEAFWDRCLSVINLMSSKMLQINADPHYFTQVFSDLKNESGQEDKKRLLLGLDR
Serine/threonine-protein kinase Nek4 (Homo sapiens), P51957 [P225A], sequence (P51957 whole entry P225A, the tested form may be a part): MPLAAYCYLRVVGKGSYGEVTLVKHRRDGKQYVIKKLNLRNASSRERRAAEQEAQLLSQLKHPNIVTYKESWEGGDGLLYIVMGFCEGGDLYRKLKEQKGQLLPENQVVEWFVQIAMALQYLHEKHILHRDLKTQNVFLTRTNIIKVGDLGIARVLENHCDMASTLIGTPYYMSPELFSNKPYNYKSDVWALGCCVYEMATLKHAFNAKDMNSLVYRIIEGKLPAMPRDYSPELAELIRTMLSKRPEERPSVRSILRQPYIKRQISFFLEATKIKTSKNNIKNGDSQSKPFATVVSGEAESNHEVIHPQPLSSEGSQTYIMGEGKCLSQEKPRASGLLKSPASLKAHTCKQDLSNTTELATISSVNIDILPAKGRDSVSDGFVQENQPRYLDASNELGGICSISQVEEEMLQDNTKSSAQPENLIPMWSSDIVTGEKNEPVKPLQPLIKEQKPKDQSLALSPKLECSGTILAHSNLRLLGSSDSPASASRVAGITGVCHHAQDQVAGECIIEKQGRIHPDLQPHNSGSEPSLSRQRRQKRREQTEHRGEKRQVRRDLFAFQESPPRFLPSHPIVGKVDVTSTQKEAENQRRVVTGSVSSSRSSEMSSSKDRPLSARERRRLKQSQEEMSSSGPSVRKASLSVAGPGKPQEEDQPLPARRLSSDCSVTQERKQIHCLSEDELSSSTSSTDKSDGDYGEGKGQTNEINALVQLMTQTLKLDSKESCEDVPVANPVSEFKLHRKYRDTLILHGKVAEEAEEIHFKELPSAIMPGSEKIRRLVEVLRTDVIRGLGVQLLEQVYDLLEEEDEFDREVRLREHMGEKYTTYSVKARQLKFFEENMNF
SRSF protein kinase 3 (Homo sapiens), sequence (Q9UPE1 whole entry): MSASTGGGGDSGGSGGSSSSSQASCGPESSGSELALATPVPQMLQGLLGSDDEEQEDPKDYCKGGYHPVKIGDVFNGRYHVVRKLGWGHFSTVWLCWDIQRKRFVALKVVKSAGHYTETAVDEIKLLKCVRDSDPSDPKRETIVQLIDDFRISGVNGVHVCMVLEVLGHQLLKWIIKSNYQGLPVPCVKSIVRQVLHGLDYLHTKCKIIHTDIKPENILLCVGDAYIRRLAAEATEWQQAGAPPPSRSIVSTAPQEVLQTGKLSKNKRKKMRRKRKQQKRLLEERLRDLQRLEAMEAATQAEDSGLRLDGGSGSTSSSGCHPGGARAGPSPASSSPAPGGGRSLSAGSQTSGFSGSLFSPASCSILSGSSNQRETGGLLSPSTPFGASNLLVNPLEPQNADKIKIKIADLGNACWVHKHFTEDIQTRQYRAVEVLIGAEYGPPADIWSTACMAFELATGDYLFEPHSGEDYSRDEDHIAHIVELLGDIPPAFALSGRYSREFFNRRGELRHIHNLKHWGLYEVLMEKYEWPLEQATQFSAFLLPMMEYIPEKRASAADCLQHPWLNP
TGF-beta receptor type-2 (Homo sapiens), sequence (P37173 whole entry): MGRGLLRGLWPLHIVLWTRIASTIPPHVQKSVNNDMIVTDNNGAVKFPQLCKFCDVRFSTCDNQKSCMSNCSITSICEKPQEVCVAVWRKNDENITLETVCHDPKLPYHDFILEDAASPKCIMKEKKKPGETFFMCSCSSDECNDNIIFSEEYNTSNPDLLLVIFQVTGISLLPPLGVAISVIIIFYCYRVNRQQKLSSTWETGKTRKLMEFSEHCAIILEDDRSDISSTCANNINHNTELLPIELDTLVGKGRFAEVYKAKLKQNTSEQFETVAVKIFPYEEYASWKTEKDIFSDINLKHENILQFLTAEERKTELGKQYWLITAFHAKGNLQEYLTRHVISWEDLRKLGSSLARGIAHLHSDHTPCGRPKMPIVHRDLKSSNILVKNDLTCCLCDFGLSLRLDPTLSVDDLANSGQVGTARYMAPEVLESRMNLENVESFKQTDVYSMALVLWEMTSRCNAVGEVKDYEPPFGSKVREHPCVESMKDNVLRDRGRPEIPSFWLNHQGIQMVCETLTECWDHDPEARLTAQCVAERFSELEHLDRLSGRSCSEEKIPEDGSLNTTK
Tyrosine-protein kinase Blk (Mus musculus), sequence (P16277 whole entry, the tested form may be a part): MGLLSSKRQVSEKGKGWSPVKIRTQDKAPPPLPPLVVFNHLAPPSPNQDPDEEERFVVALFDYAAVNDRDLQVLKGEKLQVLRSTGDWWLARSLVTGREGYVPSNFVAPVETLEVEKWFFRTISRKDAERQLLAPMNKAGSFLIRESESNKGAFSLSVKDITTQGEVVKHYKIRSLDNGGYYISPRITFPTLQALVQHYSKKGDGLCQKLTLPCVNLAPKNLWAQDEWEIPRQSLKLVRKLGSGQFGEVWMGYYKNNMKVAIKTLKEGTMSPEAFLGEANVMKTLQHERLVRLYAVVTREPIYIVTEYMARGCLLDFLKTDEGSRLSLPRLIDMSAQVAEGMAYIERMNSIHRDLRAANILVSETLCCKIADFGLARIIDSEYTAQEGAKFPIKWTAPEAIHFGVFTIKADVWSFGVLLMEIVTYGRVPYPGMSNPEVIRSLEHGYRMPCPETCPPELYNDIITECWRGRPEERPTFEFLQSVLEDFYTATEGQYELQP

As for `C[C@@H](c1ccccc1)n1nnc2cnc3ccc(-c4cnc5[nH]ccc5c4)cc3c21`, the Activity stood at 96% in assay [1]; 69% in assay [2]; 93% in assay [3]; 91% in assay [4]; 60% in assay [5]; 43% in [6]. Moreover, the Activity is 63% in assay [7]; 95% in assay [8]; 83% in [9]; 87% in assay [10]; 105% in assay [11]; 57% in assay [12]. For the same molecule, the Activity was 32% in [13]; 62% in [14]; 7% in assay [15]; 20% in [16]; 62% in assay [17]; 45% in [18]. For the same molecule, the Activity turned out to be 12% in assay [19], 69% in assay [20] and 64% in assay [21].
